Laboratory results from ChEMBL document CHEMBL5726952, “Compounds” (2019).

Assays:
Experiment in all cases: Kinase Screening Assay: Compound IC50 values were determined from 10-point, 1:3 dilution curves starting at either 100 μM or 10 μM with 10 μM ATP, by Reaction Biology Corp. For the whole kinome screen compounds were screened against 340 wild type kinases at a single dose of 1 μM, in duplicate, with 10 μM of ATP by Reaction Biology Corp. The data was averaged and plotted as percentage enzyme …
[1] = target: Tyrosine-protein kinase HCK (Homo sapiens, UniProt P08631)
Tyrosine-protein kinase HCK, sequence (P08631 whole entry): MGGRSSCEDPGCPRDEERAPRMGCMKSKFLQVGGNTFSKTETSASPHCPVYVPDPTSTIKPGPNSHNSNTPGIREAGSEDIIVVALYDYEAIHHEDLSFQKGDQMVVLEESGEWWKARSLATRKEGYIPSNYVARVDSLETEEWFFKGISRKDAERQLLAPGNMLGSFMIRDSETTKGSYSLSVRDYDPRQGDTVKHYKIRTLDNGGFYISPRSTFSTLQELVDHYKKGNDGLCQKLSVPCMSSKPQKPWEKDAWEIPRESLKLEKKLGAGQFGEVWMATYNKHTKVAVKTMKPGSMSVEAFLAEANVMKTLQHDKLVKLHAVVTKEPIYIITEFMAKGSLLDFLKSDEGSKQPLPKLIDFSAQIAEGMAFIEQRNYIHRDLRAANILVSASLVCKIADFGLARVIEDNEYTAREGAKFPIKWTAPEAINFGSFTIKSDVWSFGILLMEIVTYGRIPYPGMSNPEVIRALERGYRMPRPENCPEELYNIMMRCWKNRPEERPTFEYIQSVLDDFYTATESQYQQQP

[2] = target: Tyrosine-protein kinase Blk (Homo sapiens, UniProt P51451)
Tyrosine-protein kinase Blk, sequence (P51451 whole entry): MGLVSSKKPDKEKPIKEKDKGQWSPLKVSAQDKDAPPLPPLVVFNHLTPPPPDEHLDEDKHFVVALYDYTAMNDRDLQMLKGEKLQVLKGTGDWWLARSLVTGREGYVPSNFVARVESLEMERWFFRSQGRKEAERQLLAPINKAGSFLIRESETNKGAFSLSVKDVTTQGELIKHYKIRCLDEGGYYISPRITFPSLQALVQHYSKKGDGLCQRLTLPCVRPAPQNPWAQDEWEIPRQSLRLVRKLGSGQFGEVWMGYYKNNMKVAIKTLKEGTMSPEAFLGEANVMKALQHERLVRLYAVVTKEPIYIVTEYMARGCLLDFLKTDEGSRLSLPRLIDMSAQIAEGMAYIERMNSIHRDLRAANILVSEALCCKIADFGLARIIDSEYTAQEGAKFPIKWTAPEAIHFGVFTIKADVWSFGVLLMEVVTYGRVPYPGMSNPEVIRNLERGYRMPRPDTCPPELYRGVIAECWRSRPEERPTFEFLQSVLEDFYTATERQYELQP

[3] = target: Platelet-derived growth factor receptor alpha (Homo sapiens, UniProt P16234)
Platelet-derived growth factor receptor alpha, sequence (P16234 whole entry): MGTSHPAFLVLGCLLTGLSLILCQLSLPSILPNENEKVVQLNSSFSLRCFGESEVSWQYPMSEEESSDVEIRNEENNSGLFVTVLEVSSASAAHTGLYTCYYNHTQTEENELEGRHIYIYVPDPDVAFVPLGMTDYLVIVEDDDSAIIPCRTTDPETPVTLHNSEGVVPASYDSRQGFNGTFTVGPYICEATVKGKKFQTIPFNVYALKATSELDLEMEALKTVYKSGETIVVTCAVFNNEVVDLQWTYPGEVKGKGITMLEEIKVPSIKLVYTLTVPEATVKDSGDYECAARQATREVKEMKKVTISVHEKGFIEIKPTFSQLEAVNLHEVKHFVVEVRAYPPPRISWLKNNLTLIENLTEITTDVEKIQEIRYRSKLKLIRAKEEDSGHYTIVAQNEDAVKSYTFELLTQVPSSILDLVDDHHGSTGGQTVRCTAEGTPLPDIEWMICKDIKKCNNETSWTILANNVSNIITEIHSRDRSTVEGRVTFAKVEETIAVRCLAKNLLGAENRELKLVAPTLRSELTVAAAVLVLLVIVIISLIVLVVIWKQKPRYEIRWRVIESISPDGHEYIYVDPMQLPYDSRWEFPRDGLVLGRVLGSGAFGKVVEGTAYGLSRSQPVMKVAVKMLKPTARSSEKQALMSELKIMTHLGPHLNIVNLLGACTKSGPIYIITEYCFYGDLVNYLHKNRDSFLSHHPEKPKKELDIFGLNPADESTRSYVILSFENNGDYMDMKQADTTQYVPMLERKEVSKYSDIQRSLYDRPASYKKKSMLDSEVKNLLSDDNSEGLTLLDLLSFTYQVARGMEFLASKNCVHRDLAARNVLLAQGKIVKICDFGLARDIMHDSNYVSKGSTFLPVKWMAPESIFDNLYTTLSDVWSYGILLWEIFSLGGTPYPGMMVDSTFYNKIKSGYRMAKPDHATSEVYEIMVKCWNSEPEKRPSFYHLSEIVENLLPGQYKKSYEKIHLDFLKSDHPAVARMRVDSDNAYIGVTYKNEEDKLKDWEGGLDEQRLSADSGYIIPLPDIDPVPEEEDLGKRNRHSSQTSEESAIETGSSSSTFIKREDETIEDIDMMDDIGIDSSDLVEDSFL

[4] = target: Proto-oncogene tyrosine-protein kinase receptor Ret (Homo sapiens, UniProt P07949)
Proto-oncogene tyrosine-protein kinase receptor Ret, sequence (P07949 whole entry): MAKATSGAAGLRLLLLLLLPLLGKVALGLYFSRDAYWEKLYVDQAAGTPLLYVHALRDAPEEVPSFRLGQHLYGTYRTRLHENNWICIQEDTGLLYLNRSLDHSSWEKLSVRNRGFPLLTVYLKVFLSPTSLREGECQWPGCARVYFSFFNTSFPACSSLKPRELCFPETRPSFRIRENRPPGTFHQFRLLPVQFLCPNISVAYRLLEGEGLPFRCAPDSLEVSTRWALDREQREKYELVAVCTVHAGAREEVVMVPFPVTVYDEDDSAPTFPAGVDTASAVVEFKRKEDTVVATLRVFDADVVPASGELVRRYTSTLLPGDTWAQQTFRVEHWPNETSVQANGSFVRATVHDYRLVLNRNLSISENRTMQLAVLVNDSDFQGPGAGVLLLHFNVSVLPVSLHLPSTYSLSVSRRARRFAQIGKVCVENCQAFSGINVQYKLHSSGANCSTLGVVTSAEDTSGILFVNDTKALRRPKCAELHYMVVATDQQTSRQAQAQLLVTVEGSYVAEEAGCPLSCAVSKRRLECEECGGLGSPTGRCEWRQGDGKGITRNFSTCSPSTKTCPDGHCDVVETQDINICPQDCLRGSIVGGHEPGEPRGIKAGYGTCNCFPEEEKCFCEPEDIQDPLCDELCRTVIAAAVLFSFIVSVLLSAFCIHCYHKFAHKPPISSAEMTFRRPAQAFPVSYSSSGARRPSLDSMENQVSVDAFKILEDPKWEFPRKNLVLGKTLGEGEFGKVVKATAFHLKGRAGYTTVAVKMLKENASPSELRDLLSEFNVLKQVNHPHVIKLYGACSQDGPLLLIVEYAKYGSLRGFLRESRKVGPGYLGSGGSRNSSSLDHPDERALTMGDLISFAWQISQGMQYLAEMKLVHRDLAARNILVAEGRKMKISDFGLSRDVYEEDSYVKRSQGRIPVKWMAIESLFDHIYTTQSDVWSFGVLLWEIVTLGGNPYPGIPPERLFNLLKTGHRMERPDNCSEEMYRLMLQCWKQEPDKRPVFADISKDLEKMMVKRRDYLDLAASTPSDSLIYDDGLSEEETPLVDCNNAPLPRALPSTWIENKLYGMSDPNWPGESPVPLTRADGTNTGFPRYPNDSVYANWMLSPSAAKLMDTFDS

[5] = target: Mast/stem cell growth factor receptor Kit (Homo sapiens, UniProt P10721)
Mast/stem cell growth factor receptor Kit, sequence (P10721 whole entry): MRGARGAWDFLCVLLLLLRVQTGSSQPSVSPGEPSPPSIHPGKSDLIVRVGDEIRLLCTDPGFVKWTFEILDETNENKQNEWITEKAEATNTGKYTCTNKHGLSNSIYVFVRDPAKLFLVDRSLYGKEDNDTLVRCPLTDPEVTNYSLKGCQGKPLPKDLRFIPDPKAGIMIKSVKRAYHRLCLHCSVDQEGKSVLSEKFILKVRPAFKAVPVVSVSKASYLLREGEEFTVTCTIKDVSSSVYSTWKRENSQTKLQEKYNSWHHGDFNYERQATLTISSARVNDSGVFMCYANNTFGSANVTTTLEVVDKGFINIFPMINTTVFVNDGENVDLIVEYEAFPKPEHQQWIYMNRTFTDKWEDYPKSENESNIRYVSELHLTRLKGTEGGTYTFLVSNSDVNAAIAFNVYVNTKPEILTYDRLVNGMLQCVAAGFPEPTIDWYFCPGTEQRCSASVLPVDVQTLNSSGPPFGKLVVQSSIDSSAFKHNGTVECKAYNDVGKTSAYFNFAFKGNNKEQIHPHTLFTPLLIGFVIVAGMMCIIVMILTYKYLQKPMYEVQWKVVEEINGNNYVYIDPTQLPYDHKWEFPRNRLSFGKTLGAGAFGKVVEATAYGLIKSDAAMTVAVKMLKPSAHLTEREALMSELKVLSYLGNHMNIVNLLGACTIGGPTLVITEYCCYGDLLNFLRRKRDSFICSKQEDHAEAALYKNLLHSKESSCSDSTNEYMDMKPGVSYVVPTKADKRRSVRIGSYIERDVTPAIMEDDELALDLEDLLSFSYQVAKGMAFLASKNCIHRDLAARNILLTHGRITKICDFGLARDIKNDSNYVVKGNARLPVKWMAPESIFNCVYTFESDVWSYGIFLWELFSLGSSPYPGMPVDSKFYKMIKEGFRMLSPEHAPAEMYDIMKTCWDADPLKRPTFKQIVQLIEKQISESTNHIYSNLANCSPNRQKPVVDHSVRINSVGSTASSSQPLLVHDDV

Measured: IC50

Cc1ccc(-c2nn(CCN3CCC(N(C)C)CC3)c3ncnc(N)c23)cc1
> 1000 nM: all assays above
